We go through 17 molecules from the supplement of paper PMC12137928.

Counter-ions that a name gives are not always drawn.

In assay [1] the test system is HCT116. The assay is described as follows: efficacy (maximum % inhibition of viability vs DMSO); higher = more cytotoxic. The conditions noted are these: 72 h. Summed up: (§1)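 HCT116 cells were seeded at 250 per well in 1536-well plates and left 5 h to attach. CellTiter-Glo luminescence was scaled to vehicle (0%) and positive control (-100%), then pattern-corrected. IC50 and maximal efficacy came from four-parameter Hill fits.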

The test system of assay [2] is HCT116. The conditions noted are these: 72 h. The gist of the method: as §1

Molecule `CNC(=O)c1ccc(N2C(=S)N(c3ccc(C#N)c(C(F)(F)F)c3)C(=O)C2(C)C)cc1F` [Enzalutamide] returned an efficacy in the assay on HCT116 [1] (ICRF193 200 nM) of 45.8%. For the same molecule, the values for the IC50 cell viability in the assay with HCT116 [2] (ICRF193 0 nM) and in the assay with HCT116 [2] (ICRF193 200 nM) were over 45.8 µM and 20.6 µM, respectively.

As to `COc1cccc2c1C(=O)c1c(O)c3c(c(O)c1C2=O)C[C@@](O)(C(=O)CO)C[C@@H]3O[C@H]1C[C@H](N)[C@@H](O)[C@H](C)O1` [Epirubicin hydrochloride], the efficacy in the assay on HCT116 [1] (ICRF193 0 nM) amounted to 91.9%; in the assay with HCT116 [1] (ICRF193 200 nM), 73.8%. In addition, the figures for the IC50 cell viability with HCT116 [2] (ICRF193 0 nM) and in the assay with HCT116 [2] (ICRF193 200 nM) were 0.73 µM and 1.46 µM, respectively.

As for `C/C(=C\c1csc(C)n1)[C@@H]1C[C@@H]2O[C@]2(C)CCC[C@H](C)[C@H](O)[C@@H](C)C(=O)C(C)(C)[C@@H](O)CC(=O)O1` [Epothilone B], the efficacy with HCT116 [1] (ICRF193 0 nM) was 66%; in the assay on HCT116 [1] (ICRF193 200 nM), 45.8%. The values for the IC50 cell viability in the assay with HCT116 [2] (ICRF193 0 nM) and with HCT116 [2] (ICRF193 200 nM) were 0.00517 µM and 0.0073 µM, respectively.

`CN1C[C@H](C(=O)N[C@]2(C)O[C@@]3(O)[C@@H]4CCCN4C(=O)[C@H](Cc4ccccc4)N3C2=O)C=C2c3cccc4[nH]cc(c34)C[C@H]21` [Ergotamine tartrate] returned an efficacy in the assay with HCT116 [1] (ICRF193 200 nM) of 70.8%. The IC50 cell viability in the assay on HCT116 [2] (ICRF193 0 nM) is over 45.8 µM; in the assay on HCT116 [2] (ICRF193 200 nM) it was 18.3 µM.

Consider `C=C1C[C@@H]2CC[C@@]34C[C@H]5O[C@H]6[C@@H](O3)[C@H]3O[C@H](CC[C@@H]3O[C@H]6[C@H]5O4)CC(=O)C[C@@H]3[C@@H](OC)[C@@H](C[C@H](O)CN)O[C@H]3C[C@H]3O[C@@H](CC[C@@H]1O2)C[C@@H](C)C3=C` [Eribulin mesylate], for which the efficacy is 90.6% in the assay with HCT116 [1] (ICRF193 0 nM) and 77.5% in the assay with HCT116 [1] (ICRF193 200 nM). For the same molecule, the IC50 cell viability turned out to be 0.0651 µM with HCT116 [2] (ICRF193 0 nM) and 0.164 µM with HCT116 [2] (ICRF193 200 nM).

`C#Cc1cccc(Nc2ncnc3cc(OCCOC)c(OCCOC)cc23)c1` [Erlotinib] came in with an efficacy in the assay on HCT116 [1] (ICRF193 200 nM) of 50.4%. Also, the IC50 cell viability in the assay on HCT116 [2] (ICRF193 0 nM) is over 45.8 µM; with HCT116 [2] (ICRF193 200 nM), 14.6 µM.

`CCCCC(=O)O[C@H]1CC[C@H]2[C@@H]3CCc4cc(O)ccc4[C@H]3CC[C@]12C` [Estradiol valerate]: in the assay on HCT116 [1] (ICRF193 200 nM), the efficacy turned out to be 49.3%. Also, the IC50 cell viability in the assay with HCT116 [2] (ICRF193 0 nM) was over 45.8 µM; in the assay with HCT116 [2] (ICRF193 200 nM) it was 20.6 µM.

As for `C[C@]12CC[C@@H]3c4ccc(O)cc4CC[C@H]3[C@@H]1CC[C@@H]2O` [Estradiol], the efficacy was 49.5% in the assay with HCT116 [1] (ICRF193 0 nM) and 51.8% with HCT116 [1] (ICRF193 200 nM). Also, the figures for the IC50 cell viability in the assay on HCT116 [2] (ICRF193 0 nM) and in the assay with HCT116 [2] (ICRF193 200 nM) were 18.3 µM and 29.1 µM, respectively.

Regarding `CCOc1ccc2nc3cc(N)ccc3c(N)c2c1` [Ethacridine lactate hydrate], the efficacy with HCT116 [1] (ICRF193 0 nM) stood at 54.4%; in the assay on HCT116 [1] (ICRF193 200 nM) it was 50.6%. For the same molecule, the IC50 cell viability was 18.3 µM with HCT116 [2] (ICRF193 0 nM) and 29.1 µM in the assay with HCT116 [2] (ICRF193 200 nM).

With `CCOc1ccc(Cc2nccc3cc(OCC)c(OCC)cc23)cc1OCC` [Ethaverine hydrochloride], in the assay with HCT116 [1] (ICRF193 0 nM), the efficacy stood at 61.3%. In addition, the IC50 cell viability with HCT116 [2] (ICRF193 0 nM) is 6.51 µM; in the assay on HCT116 [2] (ICRF193 200 nM) it was over 45.8 µM.

Molecule `C#C[C@]1(O)CC[C@H]2[C@@H]3CCc4cc(O)ccc4[C@H]3CC[C@@]21C` [Ethinylestradiol] yielded an efficacy in the assay on HCT116 [1] (ICRF193 200 nM) of 41.1%. For the same molecule, the IC50 cell viability in the assay on HCT116 [2] (ICRF193 0 nM) was over 45.8 µM; with HCT116 [2] (ICRF193 200 nM), 20.6 µM.

In turn, `C#C[C@]1(OC(C)=O)CC[C@H]2[C@@H]3CCC4=C[C@@H](OC(C)=O)CC[C@@H]4[C@H]3CC[C@@]21C` [Ethynodiol diacetate] displayed an efficacy in the assay with HCT116 [1] (ICRF193 200 nM) of 47.1%. In addition, the results for the IC50 cell viability with HCT116 [2] (ICRF193 0 nM) and in the assay with HCT116 [2] (ICRF193 200 nM) were over 45.8 µM and 23.1 µM, respectively.

As to `COc1cc([C@@H]2c3cc4c(cc3[C@@H](O[C@@H]3O[C@@H]5CO[C@@H](C)O[C@H]5[C@H](O)[C@H]3O)[C@H]3COC(=O)[C@H]23)OCO4)cc(OC)c1OP(=O)(O)O` [Etoposide  Phosphate], the values for the efficacy in the assay on HCT116 [1] (ICRF193 0 nM) and in the assay with HCT116 [1] (ICRF193 200 nM) were 60.8% and 79.9%, respectively. Besides, the IC50 cell viability in the assay on HCT116 [2] (ICRF193 0 nM) was determined as 0.517 µM; in the assay with HCT116 [2] (ICRF193 200 nM) it was 0.366 µM.

For the molecule `COc1cc([C@@H]2c3cc4c(cc3[C@@H](O[C@@H]3O[C@@H]5CO[C@@H](C)O[C@H]5[C@H](O)[C@H]3O)[C@H]3COC(=O)[C@H]23)OCO4)cc(OC)c1O` [Etoposide], the efficacy is 66.7% in the assay with HCT116 [1] (ICRF193 0 nM) and 99.1% in the assay on HCT116 [1] (ICRF193 200 nM). The IC50 cell viability in the assay on HCT116 [2] (ICRF193 0 nM) came to 29.1 µM; in the assay on HCT116 [2] (ICRF193 200 nM), 2.91 µM.

For `Cc1cc(C#N)cc(C)c1Oc1nc(Nc2ccc(C#N)cc2)nc(N)c1Br` [Etravirine], the efficacy in the assay on HCT116 [1] (ICRF193 0 nM) was 49%; with HCT116 [1] (ICRF193 200 nM), 54.9%. For the same molecule, the IC50 cell viability in the assay with HCT116 [2] (ICRF193 0 nM) and in the assay on HCT116 [2] (ICRF193 200 nM) was 29.1 µM in each case.

Regarding `CC[C@@]1(O)C(=O)OCc2c1cc1n(c2=O)Cc2c-1nc1cc(F)c(C)c3c1c2[C@@H](N)CC3` [Exatecan], the efficacy worked out at 60% in the assay on HCT116 [1] (ICRF193 0 nM) and 48.8% with HCT116 [1] (ICRF193 200 nM). In addition, the IC50 cell viability with HCT116 [2] (ICRF193 0 nM) stood at 0.0259 µM; in the assay with HCT116 [2] (ICRF193 200 nM) it was 0.0231 µM.

With `C=CC[C@@H]1/C=C(\C)C[C@H](C)C[C@H](OC)[C@H]2O[C@@](O)(C(=O)C(=O)N3CCCC[C@H]3C(=O)O[C@H](/C(C)=C/[C@@H]3CC[C@@H](O)[C@H](OC)C3)[C@H](C)[C@@H](O)CC1=O)[C@H](C)C[C@@H]2OC` [FK-506], the results for the efficacy with HCT116 [1] (ICRF193 0 nM) and with HCT116 [1] (ICRF193 200 nM) were 78.2% and 45.5%, respectively. The IC50 cell viability with HCT116 [2] (ICRF193 0 nM) was 6.51 µM; with HCT116 [2] (ICRF193 200 nM) it was 4.61 µM.
